Test results taken from PubChem BioAssay (NCI).
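Results reflect a 48-hour exposure of cells in 96-well plates to compound at five concentrations. Abbreviation: GI50, concentration required for 50% inhibition of growth. The concentration for full growth arrest is given as TGI.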

Tests used:
Assay in all cases: inhibition of tumour cell growth, NCI panel, 48 h
LOX IMVI melanoma = test system: LOX IMVI melanoma
NCI-H226 lung = test system: NCI-H226 lung
SNB-75 CNS = test system: SNB-75 CNS
SN12C renal = test system: SN12C renal
KM12 colon = test system: KM12 colon
DU-145 prostate = test system: DU-145 prostate
SW-620 colon = test system: SW-620 colon
M14 melanoma = test system: M14 melanoma
PC-3 prostate = test system: PC-3 prostate
TK-10 renal = test system: TK-10 renal
SF-295 CNS = test system: SF-295 CNS
UACC-257 melanoma = test system: UACC-257 melanoma
UACC-62 melanoma = test system: UACC-62 melanoma
A549 NSCLC = test system: A549 NSCLC
OVCAR-8 ovarian = test system: OVCAR-8 ovarian
SF-268 CNS = test system: SF-268 CNS
786-0 renal = test system: 786-0 renal
RXF 393 renal = test system: RXF 393 renal
OVCAR-4 ovarian = test system: OVCAR-4 ovarian
SK-OV-3 ovarian = test system: SK-OV-3 ovarian
SK-MEL-28 melanoma = test system: SK-MEL-28 melanoma
U251 CNS = test system: U251 CNS
BT-549 breast = test system: BT-549 breast
OVCAR-3 ovarian = test system: OVCAR-3 ovarian
NCI/ADR-RES ovarian = test system: NCI/ADR-RES ovarian
SK-MEL-5 melanoma = test system: SK-MEL-5 melanoma
IGROV1 ovarian = test system: IGROV1 ovarian
SK-MEL-2 melanoma = test system: SK-MEL-2 melanoma

With `[2H]c1nc(C)nc([2H])c1-c1cc(NC[C@@H](C)c2cccc3c(C(=O)NC)ccnc23)ncn1` the GI50 (LOX IMVI melanoma) was > 100 µM, the TGI (LOX IMVI melanoma) was > 100 µM and the GI50 (NCI-H226 lung) was > 100 µM. The TGI (NCI-H226 lung) was > 100 µM, the GI50 (SNB-75 CNS) was > 100 µM and the TGI (SNB-75 CNS) was > 100 µM. For the same compound, the GI50 (SN12C renal) was > 100 µM, the TGI (SN12C renal) was > 100 µM and the GI50 (KM12 colon) was > 100 µM. For the same compound, the TGI (KM12 colon) was > 100 µM, the GI50 (DU-145 prostate) was > 100 µM and the TGI (DU-145 prostate) was > 100 µM. The GI50 (SW-620 colon) was > 100 µM, the TGI (SW-620 colon) was > 100 µM and the GI50 (M14 melanoma) was > 100 µM. For the same compound, the TGI (M14 melanoma) was > 100 µM, the GI50 (PC-3 prostate) was > 100 µM and the TGI (PC-3 prostate) was > 100 µM. The GI50 (TK-10 renal) was > 100 µM, the TGI (TK-10 renal) was > 100 µM and the GI50 (SF-295 CNS) was > 100 µM. The TGI (SF-295 CNS) was > 100 µM, the GI50 (UACC-257 melanoma) was > 100 µM and the TGI (UACC-257 melanoma) was > 100 µM. For the same compound, the GI50 (UACC-62 melanoma) was 90.9 µM, the TGI (UACC-62 melanoma) was > 100 µM and the GI50 (A549 NSCLC) was > 100 µM. The TGI (A549 NSCLC) was > 100 µM, the GI50 (OVCAR-8 ovarian) was > 100 µM and the TGI (OVCAR-8 ovarian) was > 100 µM. For the same compound, the GI50 (SF-268 CNS) was > 100 µM, the TGI (SF-268 CNS) was > 100 µM and the GI50 (786-0 renal) was > 100 µM. The TGI (786-0 renal) was > 100 µM, the GI50 (RXF 393 renal) was > 100 µM and the TGI (RXF 393 renal) was > 100 µM. The GI50 (OVCAR-4 ovarian) was > 100 µM, the TGI (OVCAR-4 ovarian) was > 100 µM and the GI50 (SK-OV-3 ovarian) was > 100 µM. The TGI (SK-OV-3 ovarian) was > 100 µM, the GI50 (SK-MEL-28 melanoma) was > 100 µM and the TGI (SK-MEL-28 melanoma) was > 100 µM. For the same compound, the GI50 (U251 CNS) was > 100 µM, the TGI (U251 CNS) was > 100 µM and the GI50 (BT-549 breast) was > 100 µM. The TGI (BT-549 breast) was > 100 µM, the GI50 (OVCAR-3 ovarian) was > 100 µM and the TGI (OVCAR-3 ovarian) was > 100 µM. For the same compound, the GI50 (NCI/ADR-RES ovarian) was > 100 µM, the TGI (NCI/ADR-RES ovarian) was > 100 µM and the GI50 (SK-MEL-5 melanoma) was 60.1 µM. For the same compound, the TGI (SK-MEL-5 melanoma) was > 100 µM, the GI50 (IGROV1 ovarian) was > 100 µM and the TGI (IGROV1 ovarian) was > 100 µM. The GI50 (SK-MEL-2 melanoma) was > 100 µM.
